# Test results as given in patent US9556179B2 (BRISTOL-MYERS SQUIBB COMPANY, priority 2012, dated 2017).
# What was measured:
# CK1ε = CK1ε (Homo sapiens (Human), UniProt P49674); assay: CK1ε kinase assay (Caliper LABCHIP electrophoretic separation of fluoresceinated peptide substrate and product); type: biochemical; conditions: 200 pM enzyme, 50 μM ATP, 22 hours at room temperature
# Outline: (§1)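 Compounds, taken from 10 mM DMSO stocks, are titrated at eleven concentrations. Kinase reactions proceed for 22 hours at room temperature and are quenched with EDTA. Substrate and product are resolved electrophoretically, and IC50 values are fitted by non-linear regression.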
# CK1δ = CK1δ (Homo sapiens (Human), UniProt P48730); assay: CK1δ kinase assay (Caliper LABCHIP electrophoretic separation of fluoresceinated peptide substrate and product); type: biochemical; conditions: 200 pM enzyme, 50 μM ATP, 22 hours at room temperature
# Sequence of CK1δ (P48730 whole entry): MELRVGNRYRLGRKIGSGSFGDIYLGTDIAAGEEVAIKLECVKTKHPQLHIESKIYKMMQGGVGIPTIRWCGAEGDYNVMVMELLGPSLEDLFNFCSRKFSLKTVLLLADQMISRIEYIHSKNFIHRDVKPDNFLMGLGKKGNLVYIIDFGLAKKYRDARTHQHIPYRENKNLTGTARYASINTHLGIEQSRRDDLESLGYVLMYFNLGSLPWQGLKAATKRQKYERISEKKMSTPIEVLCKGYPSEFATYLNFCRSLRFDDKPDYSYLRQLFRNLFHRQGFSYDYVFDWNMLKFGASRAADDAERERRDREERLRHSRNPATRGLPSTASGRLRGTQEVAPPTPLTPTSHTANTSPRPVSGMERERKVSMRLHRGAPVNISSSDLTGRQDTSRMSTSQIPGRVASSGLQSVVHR
# Outline: as §1
# Sequence of CK1ε (P49674 whole entry): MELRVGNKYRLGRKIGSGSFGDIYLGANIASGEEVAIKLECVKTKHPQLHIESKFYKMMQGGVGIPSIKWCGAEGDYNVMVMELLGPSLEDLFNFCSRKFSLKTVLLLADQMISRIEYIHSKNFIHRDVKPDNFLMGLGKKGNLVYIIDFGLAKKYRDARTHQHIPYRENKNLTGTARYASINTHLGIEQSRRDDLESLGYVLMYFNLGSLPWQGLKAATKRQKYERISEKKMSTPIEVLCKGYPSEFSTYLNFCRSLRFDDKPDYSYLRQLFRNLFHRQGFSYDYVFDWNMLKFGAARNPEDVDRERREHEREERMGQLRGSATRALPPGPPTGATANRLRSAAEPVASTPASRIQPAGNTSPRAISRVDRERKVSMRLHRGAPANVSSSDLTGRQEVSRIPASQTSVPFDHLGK
SMILES,IC50 (CK1ε),IC50 (CK1δ)
"Cc1nc(-c2ccc(F)cc2)c(-c2ccc3nc(NC(=O)c4cnn[nH]4)cn3n2)n1C [Compound 370, N-(6-(4-(4-fluorophenyl)-1,2-dimethyl-1H-imidazol-5-yl)imidazo[1,2-b]pyridazin-2-yl)-1H-1,2,3-trizole-4-carboxamide]",16.2 nM,1.12 nM
"O=C(Nc1cn2nc(-c3c(-c4ccc(F)cc4)nc4n3CCCC4)ccc2n1)c1cc(F)nc(F)c1 [Compound 445, 2,6-Difluoro-N-(6-(2-(4-fluorophenyl)-5,6,7,8-tetrahydroimidazo[1,2-a]pyridin-3-yl)imidazo[1,2-b]pyridazin-2-yl)isonicotinamide]",4.7 nM,0.4 nM
"O=C(Nc1cn2nc(-c3c(-c4ccc(F)cc4)ncn3C3CCN(C(=O)c4cscn4)CC3)ccc2n1)c1ccnc(F)c1 [Compound 44, 2-fluoro-N-(6-(4-(4-fluorophenyl)-1-(1-(thiazole-4-carbonyl)piperidin-4-yl)-1H-imidazol-5-yl)imidazo[1,2-b]pyridazin-2-yl)isonicotinamide]",1.23 nM,0.295 nM
"O=C(Nc1cn2nc(-c3c(-c4ccc(F)cc4)ncn3C3CN(CCO)C3)ccc2n1)c1ccnc(F)c1 [Compound 150, 2-fluoro-N-(6-(4-(4-fluorophenyl)-1-(1-(2-hydroxyethyl)azetidin-3-yl)-1H-imidazol-5-yl)imidazo[1,2-b]pyridazin-2-yl)isonicotinamide]",3.81 nM,0.034 nM
"O=C(Nc1cn2nc(-c3c(-c4ccc(F)cc4)nc4n3CCNC4)ccc2n1)c1cc(F)nc(F)c1 [Compound 457, 2,6-Difluoro-N-(6-(2-(4-fluorophenyl)-5,6,7,8-tetrahydroimidazo[1,2-a]pyrazin-3-yl)imidazo[1,2-b]pyridazin-2-yl)isonicotinamide]",8.5 nM,0.5 nM
"O=C(Nc1cn2nc(-c3c(-c4ccc(F)cc4)ncn3C3CNC3)ccc2n1)c1ccncc1 [Compound 157, N-(6-(1-(azetidin-3-yl)-4-(4-fluorophenyl)-1H-imidazol-5-yl)imidazo[1,2-b]pyridazin-2-yl)isonicotinamide]",9.93 nM,0.587 nM
"O=C(Nc1cn2nc(-c3c(-c4ccc(F)cc4)ncn3-c3ccc(F)cc3)ccc2n1)c1ccnc(N2CCOCC2)c1 [Compound 419, N-(6-(1,4-bis(4-Fluorophenyl)-1H-imidazol-5-yl)imidazo[1,2-b]pyridazin-2-yl)-2-morpholinoisonicotinamide]",35.2 nM,3.1 nM
"O=C(Nc1cn2nc(-c3c(-c4ccc(F)cc4)nc4ccccn34)ccc2n1)c1cncnc1 [Compound 182, N-(6-(2-(4-fluorophenyl)imidazo[1,2-a]pyridin-3-yl)imidazo[1,2-b]pyridazin-2-yl)-5-pyrimidinecarboxamide]",6.13 nM,0.53 nM
"NCC(=O)N1CCC(n2cnc(-c3ccc(F)cc3)c2-c2ccc3nc(NC(=O)c4ccnc(F)c4)cn3n2)CC1 [Compound 40, N-(6-(1-(1-(2-aminoacetyl)piperidin-4-yl)-4-(4-fluorophenyl)-1H-imidazol-5-yl)imidazo[1,2-b]pyridazin-2-yl)-2-fluoroisonicotinamide]",0.984 nM,0.085 nM
"O=C(Nc1cn2nc(-c3c(-c4ccc(F)cc4)ncn3C3CCNCC3)ccc2n1)c1ccnc(F)c1 [Compound 9, 2-fluoro-N-(6-(4-(4-fluorophenyl)-1-(piperidin-4-yl)-1H-imidazol-5-yl)imidazo[1,2-b]pyridazin-2-yl)isonicotinamide]",0.681 nM,0.92 nM
"Cc1ccc(-c2nc(C)n(C)c2-c2ccc3nc(NC(=O)c4ccnc(F)c4)cn3n2)cc1 [Compound 300, N-(6-(1,2-dimethyl-4-(p-tolyl)-1H-imidazol-5-yl)imidazo[1,2-b]pyridazin-2-yl)-2-fluoroiso-nicotinamide]",34.3 nM,1.8 nM
